In one data set the test system is human neutrophils. As to the kind of experiment: Oxygen consumption (oxidative burst) of human neutrophils. It is filed as cell-based. The settings on record: for IC50: Homo sapiens, Neutrophil. The source says: Human neutrophils were obtained by continuous flow leukapheresis from normal adults. Residual erythrocytes were removed by hypotonic lysis with a resulting purity of >95% neutrophils. Alternatively peripheral blood was obtained by phlebotomy and neutrophils were isolated by HESPAN (6% Hetastarch, 0.9% NaCl) sedimentaion of erythrocytes, centrifugation through lymphocyte separation medium (9.4% sodium diatrizoate, 6.2% Ficoll), and hypotonic lysis of residual erythrocytes. Isolated cells were resuspended in phosphate buffered saline (PBS)-glucose, containing 0.6 mM CaCl2, 2.6 mM KCl, 1.5 mM KH2 PO4, 0.5 mM MgCl2, 136 mM NaCl, 8 mM Na2 HPO4, 5.5 mM glucose.
Oxygen consumption was measured using a Clark-type electrode with YSI model 53 oxygen monitor. Assays were conducted at 37° C. with 6.5×10^6 cells per ml with a total volume of either 2.5 ml or 4 ml. Effectors were injected into the electrode chamber using a Hamilton syringe. Initial slopes after the addition of the stimuli were used for rate calculations. For activators with a lag prior to the onset of the oxidative burst, maximal rates following the lag were used.

For data set [1], the system named is protein kinase C. As to the kind of experiment: Triton X-100 mixed micellar assay for protein kinase C activity. It is filed as biochemical, rat. Particulars: for inhibition of protein kinase C (specificity): mixed micellar assay. Here is the method: Protein kinase C was partially purified from rat brain as described by Hanrun et al (J. Biol. Chem., 260, 10043, 1985), which is hereby incorporated by reference.
Protein kinase C was assayed with Triton X-100 mixed micelles as described by Hanrun et al, (ibid.), Sphingosine was dried down with the lipid cofactors.

The test system of another data set is HL-60 cells. In words: PMA-induced adherence (attachment) of HL-60 cells. It is filed as cell-based, human. The settings on record: for Adherent cells (%): 72 h; for IC50: Homo sapiens. Here is the method:
Cells were centrifuged at 600 g for 3 min, and added at 1×10^5 cells per well in 12-well culture dishes. Medium, PMA, and long-chain bases (prepared as the 1:1 molar complex with fatty acid-free bovine serum albumin) at the indicated concentrations were added for a total volume of 2.0 ml. After the desired times, the cells in suspension were counted and checked for viability (trypan blue exclusion) with a hemacytometer. The attached cells were quantitated by measuring DNA content according to the method of West et al (Anal. Biochem., 147, 289-295, 1985) and by assaying for acid phosphatase according to the method of Schnyder (J. Exp. Med., 148, 434-445, 1978).

A further data set has as its system neutrophils. In words: Cell association of radiolabeled sphinganine with neutrophils. It is filed as in vitro ADME, human. The settings on record: 3, 10, 30 μM plus albumin carrier, 2.5×10^6 cells, 5 min. The protocol: To determine how much inhibitor was actually becoming associated with the cells, radiolabeled sphinganine (3, 10, 30 μM) plus albumin carrier was incubated with neutrophils (2.5×10^6 cells) for 5 min (i.e. a time longer than that needed to achieve inhibition). After washing by centrifugation, the cell-associated radioactivity was measured. Approximately 20% of the added sphinganine became cell-associated. Therefore, because of partitioning between the albumin and the cells, the cellular concentration of sphinganine was considerably less than the total.

Data set [2] relates to protein kinase C-induced phosphorylation of the 40 KDa polypeptide. In words: 40K (40 kDa) protein phosphorylation in human platelets. It is filed as cell-based. Here is the method: They were then suspended in modified Tyrode's buffer to a concentration of 2.5×10^8 platelets/ml.
^32 Pi at 0.2 mCi/ml was added to the platelet suspension and labelling was allowed to proceed for 75 minutes at 37° C., after which the platelets were pelleted at 600×g for 10 minutes and resuspended in Tyrode's buffer to the same concentration. They were then aliquoted in Eppendorf microfuge tubes and preincubated at 37° C. for 5 minutes with the varying concentrations of sphingosine. Platelets were then stimulated with either 5 μM dioctanoylglycerol (added as an ethanol solution with the final concentration of ethanol 0.5%), 10 μM TPA, or 1 unit/ml thrombin. The reactions were stopped after 30 seconds by the addition of an equal volume of 2× sample buffer, and the samples were then boiled for 3 minutes. […] Gels were subsequently fixed in water/methanol/acetic acid (60:30:10), dried, and autoradiographed.

For data set [3], the target named is protein kinase C. As to the kind of experiment: Phorbol-dibutyrate binding to protein kinase C, mixed micellar assay (Table VI). Particulars: Triton X-100 mixed micelles, 20 mol % phosphatidylserine. The protocol: TABLE VI: Inhibition of protein kinase C activity and phorbol-dibutyrate binding by lysosphingolipids. […] The remaining two columns show the observed effects of the lysosphingolipids of protein kinase C activity and phorbol diester binding in vitro and in human platelets. Lysogangliosides were prepared from their parental gangliosides by hydrolysis in methanolic KOH esentially as described by Neuenhofer et al. in Bioch. 24, 525, 1985. During this preparation, with approximately 90-95% conversion, the N-acetate of N-acetylneuraminic acid is partially hydrolyzed. Fatty acids were partitioned into heptane after acidification of the methanolic reaction mixture. Galactosylsphingosine, glucosylsphingosine, and lactosylsphingosine were prepared as previously described for galactosylsphingosine (Radin, Lipids 9, 358, 1974) Sphingosylphosphorylcholine was prepared by hydrolysis in HCl-butanol (Kaller, Biochemische Zeitschrift 334, 451, 1961). The purity of the lyso derivatives (greater than 90%) was checked by thin layer chromatography (TLC) on silica gel H plates developed in chloroform/methanol/2N NH4 OH (65/35/9) and visualized by ninhydrin reaction for N-lyso compounds, by α-naphthol/sulfuric acid for both gangliosides and lysogangliosides,and by a phospholipid spray for sphingosylphosphorylcholine. Lysosphingolipids were quantitated by reaction of the amine group with trinitrobenzenesulfonate. Gangliosides and lysosphingolipids were also quantitated by reaction with anthrone. The lysosphingolipids were then studied for their effect on protein kinase C activity. Protein kinase C was purified to near homogeneity by the method of Wolf et al. (J. Biol. Chem. 260, 15718, 1985), and activity was measured using a mixed micellar assay (described herein). Lysosphingolipids were added directly in aqueous solution, and allowed to equilibrate with the Triton X-100 (0.3% w/v) mixed micelles containing 6 mol % phosphatidylserine and 2 mol % dioleoylglycerol. […] Phorbol-dibutyrate binding was measured in a mixed micellar assay. Lysosphingolipids inhibited phorbol-dibutyrate binding to protein kinase C in the presence of Triton X-100 mixed micelles containing 20 mol % phosphatidylserine. […] The difference is related to the higher concentration of phosphatidylserine used in the binding assay, as both activity and binding show a high cooperative dependence on phosphatidylserine, which modulates the inhibition by lysosphingolipids. Phorbol-dibutyrate binding to human platelets and 40 kDa phosphorylation in platelets were carried out as described above. Lysosphingolipids inhibited phorbol dibutyrate binding to human platelets at concentrations in the 10-50 μM range. Inhibition of 40 kDa phosphorylation occurred over the same concentration range.

[4] abbreviates: oxidative burst, PMA activation, read-out: Concentration required for 50% inhibition.

Structures are written as SMILES. Where two headings read alike, the source gives them in different places.

Consider 2 compounds from patent US4937232A, “Inhibition of protein kinase C by long-chain bases” (priority 1988, dated 1990).

`CCCCCCCCCCCCCCC[C@@H](O)[C@@H](N)CO` (relative stereo) [Sphinganine, erythro-dihydrosphingosine]: in the data set with human neutrophils (40 μM sphinganine 5-10 min, then washed twice with 50 μM fatty acid-free BSA), the “PMA-induced oxygen consumption after washing out sphinganine” value came to 3.7 nmols/min/10^6 cells. Further, the “RATE of oxygen consumption, SPHINGANINE” value is listed as 0.2 nmols O2 consumed/min/10^6 cells in the data set with human neutrophils (50 μM sphinganine 3 min before Arachidonate (83 μM)); 0.3 nmols O2 consumed/min/10^6 cells with human neutrophils (50 μM sphinganine 3 min before Dioctanoyl Glycerol (100 μM)); 0.3 nmols O2 consumed/min/10^6 cells in the data set on human neutrophils (50 μM sphinganine 3 min before FMLP (0.5 μM) + Cytochalasin B (5 μg/ml)); 0.3 nmols O2 consumed/min/10^6 cells in the data set with human neutrophils (50 μM sphinganine 3 min before Opsonized zymosan (30 μg/ml)); 0.2 nmols O2 consumed/min/10^6 cells with human neutrophils (50 μM sphinganine 3 min before Phorbol Myristate Acetate (1 μM)). Further, the IC50 is 6.7 µM in the data set with human neutrophils (activator PMA, read-out: half maximal inhibition of oxygen consumption); 7.4 µM in the data set with human neutrophils (activator dioctanoylglycerol, read-out: half maximal inhibition of oxygen consumption); 5.6 µM in the data set with human neutrophils (activator opsonized zymosan, read-out: half maximal inhibition of oxygen consumption); 6 to 8 µM with human neutrophils (approximately 7.5×10^6 cells/ml, read-out: concentration for 50% inhibition, oxygen consumption assay); 7 µM in the data set with human neutrophils (setting [4]); 3 µM in the data set on HL-60 cells (HL-60, 8 nM PMA, read-out: 50% inhibition of PMA-induced attachment). In addition, the “activation of the oxidative burst by A23187” value in the data set on human neutrophils (preliminary studies) is recorded as “blocked”. Moreover, the “inhibition of protein kinase C (specificity)” value with protein kinase C [1] is recorded as “inhibitors”. For the same compound, the “% Adherence” value is 26% in the data set on HL-60 cells (8 nM PMA + 1 μM sphinganine, 24 h); 25.5 ± 7.7% with HL-60 cells (8 nM PMA + 1 μM sphinganine, 24 h, listed as Sa); 3.7 ± 0.7% in the data set on HL-60 cells (1 μM sphinganine, no PMA, 24 h). Moreover, the Adherence in the data set on HL-60 cells (8 nM PMA + 2.5 μM sphinganine) is 17.6±6.4%; in the data set with HL-60 cells (8 nM PMA + 5 μM sphinganine), 15.0±2.1%. Further, in the data set on HL-60 cells (8 nM PMA plus 1 μM sphinganine, 24 h), the “number of adherent cells” value was 0.51 ×10^5. Also, the “Adherent cells (%)” value in the data set on HL-60 cells (8 nM PMA, 1 μM sphinganine) stood at 85%; in the data set on HL-60 cells (8 nM PMA, 2.5 μM sphinganine), 74%; in the data set with HL-60 cells (8 nM PMA, 5 μM sphinganine), 70%; in the data set with HL-60 cells (No PMA, 1 μM sphinganine), 9%; with HL-60 cells (No PMA, 2.5 μM sphinganine) it was 11%; with HL-60 cells (No PMA, 5 μM sphinganine), 6%. Further, the “added sphinganine that became cell-associated” value in the data set on neutrophils was “Approximately 20%”.
Take `CCCCCCCCCCCCC/C=C/[C@@H](O)[C@@H](N)CO` [sphingosine]: the “inhibition of thrombin-induced 40K phosphorylation” value in data set [2] (25 μM sphingosine) is given as “nearly complete inhibition”; in data set [2] (concentrations as low as 10 μM), “Partial inhibition”. Also, the “inhibition of TPA and diC8-induced 40K phosphorylation” value in data set [2] (data not shown) is listed as “inhibited”. The “sphingosine required for complete inhibition (mol % sphingosine:phospholipids)” value in data set [2] (platelet 40K phosphorylation, similar to in vitro inhibition of protein kinase C) is given as 3-5 mol %. Further, the IC50 with human neutrophils (setting [4]) turned out to be 9 µM; at protein kinase C [1] (Triton X-100 mixed micelles, 6 mol % PS, 2 mol % diC18:1, read-out: 50% inhibition of protein kinase C activity), 100 µM; in the data set on HL-60 cells (HL-60, read-out: 50% inhibition of PMA-induced attachment), 1 µM; at protein kinase C [3] (read-out: Inhibition of [3H]PDBu Binding to Protein Kinase) it was 400 µM. For the same compound, the “Hill number of the PS dependence of protein kinase C activation” value in the data set with protein kinase C [1] (2 mol % sphingosine) is recorded as 6.9; in the data set on protein kinase C [1] (4 mol % sphingosine), 8.8. Moreover, in the data set on protein kinase C [1] (6 mol % PS, 50 μM Ca2+, double reciprocal plots), the “type of inhibition with respect to diC18:1” value was “competitive”. Besides, the “type of inhibition with respect to phorbol dibutyrate” value in the data set with protein kinase C [1] (double reciprocal plots) was “competitive inhibition”. Also, the “type of inhibition with respect to Ca2+” value with protein kinase C [1] (fixed PS and diC18:1, 3 and 4 mol % sphingosine) is “appeared competitive”. The “inhibition of protein kinase C (specificity)” value with protein kinase C [1] was “potent and reversible inhibitor”. Besides, the “Inhibition of [3H]PDBu Binding to Protein Kinase, (mol %)” value at protein kinase C [3] stood at 9.3 mol %.
